What all share (type): functional, cell-based
Data set [1] concerns the target T1, ATP-dependent translocase ABCB1 (Homo sapiens, UniProt P08183). Briefly: TP_TRANSPORTER: increase in Calcein-AM intracellular accumulation (Calcein-AM: 0.5 uM, Desipramine: 20 uM) in MDR1-expressing NIH-3T3 cells. The conditions noted are these: mouse, nih3t3, 20 µM.
Data set [2] concerns the target T1, ATP-dependent translocase ABCB1. Briefly: TP_TRANSPORTER: increase in Calcein-AM intracellular accumulation (Calcein-AM: 0.5 uM, Mitomycin C: 20 uM) in MDR1-expressing NIH-3T3 cells. The conditions noted are these: mouse, nih3t3, 20 µM.
The target is the same in data set [3]. In words: TP_TRANSPORTER: increase in Calcein-AM intracellular accumulation (Calcein-AM: 0.5 uM, Vinblastine: 70 uM) in MDR1-expressing NIH-3T3 cells. The note with it: mouse, nih3t3, 70 µM.
The target is the same in data set [4]. Briefly: TP_TRANSPORTER: increase in Calcein-AM intracellular accumulation (Calcein-AM: 0.5 uM, Trimipramine: 20 uM) in MDR1-expressing NIH-3T3 cells. The conditions noted are these: mouse, nih3t3, 20 µM.
The target is the same in data set [5]. In words: TP_TRANSPORTER: increase in Calcein-AM intracellular accumulation (Calcein-AM: 0.5 uM, PSC-833: 8 uM) in MDR1-expressing NIH-3T3 cells. The conditions noted are these: mouse, nih3t3, 8 µM.
For data set [6] the target is unchanged. Briefly: TP_TRANSPORTER: increase in Calcein-AM intracellular accumulation (Calcein-AM: 0.5 uM, Galangin: 50 uM) in MDR1-expressing NIH-3T3 cells. The conditions noted are these: mouse, nih3t3, 50 µM.
Data set [7] shares this target. Briefly: TP_TRANSPORTER: increase in Calcein-AM intracellular accumulation (Calcein-AM: 0.5 uM, m-Amsacrine: 5 uM) in MDR1-expressing NIH-3T3 cells. The note with it: mouse, nih3t3, 5 µM.
Data set [8] has the same target. Briefly: TP_TRANSPORTER: increase in Calcein-AM intracellular accumulation (Calcein-AM: 0.5 uM, Benzocaine: 20 uM) in MDR1-expressing NIH-3T3 cells. The conditions noted are these: mouse, nih3t3, 20 µM.
For data set [9] the target is unchanged. In words: TP_TRANSPORTER: increase in Calcein-AM intracellular accumulation (Calcein-AM: 0.5 uM, Propranolol: 500 uM) in MDR1-expressing NIH-3T3 cells. The note with it: mouse, nih3t3, 500 µM.
Data set [10] shares this target. Briefly: TP_TRANSPORTER: increase in Calcein-AM intracellular accumulation (Calcein-AM: 0.5 uM, Mibefradil: 18 uM) in MDR1-expressing NIH-3T3 cells. The conditions noted are these: mouse, nih3t3, 18 µM.
The target is the same in data set [11]. Briefly: TP_TRANSPORTER: increase in Calcein-AM intracellular accumulation (Calcein-AM: 0.5 uM, Gramicidin D: 10 uM) in MDR1-expressing NIH-3T3 cells. The conditions noted are these: mouse, nih3t3, 10 µM.
For data set [12] the target is unchanged. In words: TP_TRANSPORTER: increase in Calcein-AM intracellular accumulation (Calcein-AM: 0.5 uM, Hoechst 33342: 50 uM) in MDR1-expressing NIH-3T3 cells. The note with it: mouse, nih3t3, 50 µM.
For data set [13] the target is unchanged. In words: TP_TRANSPORTER: increase in Calcein-AM intracellular accumulation (Calcein-AM: 0.5 uM, Genistein: 40 uM) in MDR1-expressing NIH-3T3 cells. The note with it: mouse, nih3t3, 40 µM.
Data set [14] shares this target. Briefly: TP_TRANSPORTER: increase in Calcein-AM intracellular accumulation (Calcein-AM: 0.5 uM, Reserpine: 40 uM) in MDR1-expressing NIH-3T3 cells. The note with it: mouse, nih3t3, 40 µM.
Data set [15] has the same target. In words: TP_TRANSPORTER: increase in Calcein-AM intracellular accumulation (Calcein-AM: 0.5uM, Nonidet P-40:6x10-4a%) in MDR1-expressing NIH-3T3 cells. The note with it: mouse, nih3t3.

Where a SMILES comes first, the peptide text is derived from it. [ ]: non-standard residue; d: D form. The star is where a group is joined. NHCH2CH2OH = OCCN*; For = O=C*

T1 sequence (P08183 whole entry): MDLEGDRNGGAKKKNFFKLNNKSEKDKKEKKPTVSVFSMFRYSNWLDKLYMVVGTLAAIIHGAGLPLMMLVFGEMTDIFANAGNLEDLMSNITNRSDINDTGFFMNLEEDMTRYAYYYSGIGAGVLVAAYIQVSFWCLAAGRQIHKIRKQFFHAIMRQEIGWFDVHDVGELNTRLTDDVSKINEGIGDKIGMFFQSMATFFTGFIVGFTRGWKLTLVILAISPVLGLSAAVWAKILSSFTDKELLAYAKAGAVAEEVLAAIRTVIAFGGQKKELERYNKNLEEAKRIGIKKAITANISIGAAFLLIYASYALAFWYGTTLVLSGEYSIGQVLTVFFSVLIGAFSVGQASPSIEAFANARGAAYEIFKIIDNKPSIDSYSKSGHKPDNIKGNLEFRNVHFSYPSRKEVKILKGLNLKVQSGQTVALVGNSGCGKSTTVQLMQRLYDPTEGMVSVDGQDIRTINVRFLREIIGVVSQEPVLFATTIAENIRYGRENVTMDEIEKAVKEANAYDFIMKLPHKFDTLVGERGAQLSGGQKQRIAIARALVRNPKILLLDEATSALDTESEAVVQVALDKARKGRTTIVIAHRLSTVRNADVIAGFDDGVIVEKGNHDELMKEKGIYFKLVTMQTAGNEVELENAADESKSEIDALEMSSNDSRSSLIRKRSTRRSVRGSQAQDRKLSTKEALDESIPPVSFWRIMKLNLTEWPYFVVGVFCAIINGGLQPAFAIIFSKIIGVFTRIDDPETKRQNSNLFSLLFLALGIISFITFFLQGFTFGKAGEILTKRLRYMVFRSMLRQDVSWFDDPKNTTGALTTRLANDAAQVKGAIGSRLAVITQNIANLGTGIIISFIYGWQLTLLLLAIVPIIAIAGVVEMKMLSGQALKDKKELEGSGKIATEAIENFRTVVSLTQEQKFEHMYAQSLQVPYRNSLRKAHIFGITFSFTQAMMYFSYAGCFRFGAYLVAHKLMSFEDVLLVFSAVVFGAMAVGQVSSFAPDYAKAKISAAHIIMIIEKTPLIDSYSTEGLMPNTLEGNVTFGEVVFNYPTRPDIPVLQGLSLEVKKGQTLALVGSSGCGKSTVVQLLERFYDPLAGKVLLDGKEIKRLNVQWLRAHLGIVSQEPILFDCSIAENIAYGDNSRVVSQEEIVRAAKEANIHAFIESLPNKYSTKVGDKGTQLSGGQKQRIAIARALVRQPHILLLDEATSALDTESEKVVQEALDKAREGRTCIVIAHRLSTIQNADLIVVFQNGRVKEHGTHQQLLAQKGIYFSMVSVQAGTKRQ

For `CNCCCN1c2ccccc2CCc2ccccc21` [DESIPRAMINE], the Activity entry in [1] is “inhibitor [+]”.
On to `CO[C@@]12[C@H](COC(N)=O)C3=C(C(=O)C(C)=C(N)C3=O)N1C[C@@H]1N[C@@H]12` [MITOMYCIN], for which, in [2], the Activity result was “is not an inhibitor [-]”.
For the compound `CC[C@]1(O)C[C@@H]2CN(CCc3c([nH]c4ccccc34)[C@@](C(=O)OC)(c3cc4c(cc3OC)N(C)[C@H]3[C@@](O)(C(=O)OC)[C@H](OC(C)=O)[C@]5(CC)C=CCN6CC[C@]43[C@@H]65)C2)C1` [VINBLASTINE], in data set [3], the Activity result is “inhibitor [+]”.
For the compound `CC(CN(C)C)CN1c2ccccc2CCc2ccccc21` (stereo not given) [TRIMIPRAMINE], the Activity result in data set [4] was “inhibitor [+]”.
Consider `C/C=C/C[C@@H](C)C(=O)[C@H]1C(=O)N[C@@H](C(C)C)C(=O)N(C)CC(=O)N(C)[C@@H](CC(C)C)C(=O)N[C@@H](C(C)C)C(=O)N(C)[C@@H](CC(C)C)C(=O)N[C@@H](C)C(=O)N[C@H](C)C(=O)N(C)[C@@H](CC(C)C)C(=O)N(C)[C@@H](CC(C)C)C(=O)N(C)[C@@H](C(C)C)C(=O)N1C` [VALSPODAR], for which, in [5], the Activity result was “inhibitor [+]”.
`O=c1c(O)c(-c2ccccc2)oc2cc(O)cc(O)c12` [GALANGIN]: in data set [6], the Activity entry is “inhibitor [+]”.
Consider `COc1cc(NS(C)(=O)=O)ccc1Nc1c2ccccc2nc2ccccc12` [AMSACRINE], for which, in data set [7], the Activity result was “inhibitor [+]”.
As for `CCOC(=O)c1ccc(N)cc1` [BENZOCAINE], in data set [8], the Activity entry was “inhibitor [+]”.
With `CC(C)NCC(O)COc1cccc2ccccc12` (stereo not given) [PROPRANOLOL], the Activity result in data set [9] is “inhibitor [+]”.
For `COCC(=O)O[C@]1(CCN(C)CCCc2nc3ccccc3[nH]2)CCc2cc(F)ccc2[C@@H]1C(C)C` [MIBEFRADIL], the Activity result in data set [10] is “inhibitor [+]”.
As to `CC(C)C[C@@H](NC(=O)[C@H](C)NC(=O)CNC(=O)[C@@H](NC=O)C(C)C)C(=O)N[C@@H](C)C(=O)N[C@@H](C(=O)N[C@H](C(=O)N[C@@H](C(=O)N[C@@H](Cc1c[nH]c2ccccc12)C(=O)N[C@H](CC(C)C)C(=O)N[C@@H](Cc1c[nH]c2ccccc12)C(=O)N[C@H](CC(C)C)C(=O)N[C@@H](Cc1c[nH]c2ccccc12)C(=O)N[C@H](CC(C)C)C(=O)N[C@@H](Cc1c[nH]c2ccccc12)C(=O)NCCO)C(C)C)C(C)C)C(C)C` [GRAMICIDIN D] (For-VGA[dL]A[dV]V[dV]W[dL]W[dL]W[dL]W-NHCH2CH2OH), the Activity result in data set [11] was “is not an inhibitor [-]”.
With `CCOc1ccc(-c2nc3cc(-c4nc5cc(N6CCN(C)CC6)ccc5[nH]4)ccc3[nH]2)cc1`, in data set [12], the Activity result was “is not an inhibitor [-]”.
`O=c1c(-c2ccc(O)cc2)coc2cc(O)cc(O)c12` [GENISTEIN]: in data set [13], the Activity result is “inhibitor [+]”.
For `COC(=O)[C@H]1[C@H]2C[C@@H]3c4[nH]c5cc(OC)ccc5c4CCN3C[C@H]2C[C@@H](OC(=O)c2cc(OC)c(OC)c(OC)c2)[C@@H]1OC` [RESERPINE], the Activity result in [14] is “inhibitor [+]”.
Consider `CC(C)(C)CC(C)(C)c1ccc(OCCOCCO)cc1`, for which, in data set [15], the Activity result is “inhibitor [+]”.

The values are drawn from ChEMBL document CHEMBL2074246, “Distinct groups of multidrug resistance modulating agents are distinguished by competition of P-glycoprotein-specific antibodies” (Biochem Biophys Res Commun, 2004).
